# Tests used:
# in vitro [1] = conditions: human, liver microsomes
# physchem = conditions: octanol/water, pH 7.4
# Description: Octanol/water partition coefficient, log D of compound at pH 7.4 by shake-flask method
# in vitro [2] = conditions: dog, MDCK
# Description: Apparent permeability in RRCK cells
# in vitro [3] = conditions: human, hepatocytes
# Description: Intrinsic clearance in human hepatocytes at 0.2 nmol assessed per million cells up to 240 mins in presence of NADPH by LC-MS/MS analysis
Structure (SMILES),"microsomal CLint at 1 h, 10 µM (in vitro [1]) [µL/min/mg]",logD (physchem),Papp (in vitro [2]) [×10⁻⁶ cm/s],hepatocyte CLint at 4 h (in vitro [3]) [µL/min/1e6 cells]
CCOC(=O)N1CCC(=C2c3ccc(Cl)cc3CCc3ccc(C(F)F)nc32)CC1,108,4.6,7.7,48.7
Clc1ccc2c(c1)CCc1cccnc1C2=C1CCNCC1 [DESLORATADINE],–,1.3,2.8,–
OC1Cc2cccnc2C(=C2CCNCC2)c2ccc(Cl)cc21 (configuration not stated),–,0.94,79.9,< 1.75
CCOC(=O)N1CCC(=C2c3ccc(Cl)cc3C=Cc3cccnc32)CC1,–,2.6,98,9
OC1Cc2cc(Cl)ccc2C(=C2CCNCC2)c2ncccc21 (configuration not stated),–,1.1,78.4,3.14
CCOC(=O)N1C=C/C(=C2\c3ccc(Cl)cc3CCc3cccnc32)CC1,68,4.3,40,–
CCOC(=O)N1CCC(=C2c3ccc(Cl)cc3C(O)Cc3cccnc32)CC1 (configuration not stated),157,3.2,26.2,40
CCOC(=O)N1C(O)CC(=C2c3ccc(Cl)cc3CCc3cccnc32)CC1O (configuration not stated),21,2.3,19.8,14
CCOC(=O)N1C=C/C(=C2/c3ccc(Cl)cc3CCc3cccnc32)CC1,–,3.6,53,–
CCOC(=O)N1CCC2(CC1)OC21c2ccc(Cl)cc2CCc2ccc[n+]([O-])c21 (configuration not stated),< 7,2.1,15.2,4.6
CCOC(=O)N1CCC(=C2c3ccc(Cl)cc3CCc3ccc[n+](C)c32)CC1,23,0.3,0.2,6
CCOC(=O)N1CCC(=C2c3ccc(Cl)cc3CCc3cc(O)cnc32)CC1,132,3.1,11,96
CCOC(=O)N1CCC2(CC1)OC21c2ccc(Cl)cc2CCc2cccnc21 (configuration not stated),89,2.9,17.9,26.2
CCOC(=O)N1CCC(=C2c3ccc(Cl)cc3CC(F)c3cccnc32)CC1 (configuration not stated),120,4.5,13,32
CCOC(=O)N1CC/C(=C2/c3ccc(Cl)cc3CCc3cccnc32)C(O)C1 (configuration not stated),51,3.1,22,19
CCOC(=O)N1C=C/C(=C2\c3ccc(Cl)cc3CC(O)c3cccnc32)CC1 (configuration not stated),–,3.4,78,82
CCOC(=O)N1CC(O)C(=C2c3ccc(Cl)cc3CCc3cccnc32)C(O)C1 (configuration not stated),35,2.8,23,18
CCOC(=O)N1CCC(=C2c3ccc(Cl)cc3CCc3ccc[n+]([O-])c32)CC1,48,2.8,26.8,17.8
CCOC(=O)N1CCC(=C2c3ccc(Cl)cc3CC(O)c3cccnc32)CC1 (configuration not stated),132,3.3,23.7,61.5
CCOC(=O)N1C=C/C(=C2/c3ccc(Cl)cc3CCc3cc(O)cnc32)CC1,61,3.9,–,62
CCOC(=O)N1CCC(=C2c3ccc(Cl)cc3CCc3c(CO)ccnc32)CC1,283,2.6,16.2,58.6
CCOC(=O)N1C=C/C(=C2\c3ccc(Cl)cc3CCc3cc(O)cnc32)CC1,66,3.1,–,67

# Source: ChEMBL document CHEMBL4627397 (J Med Chem, 2020)
